From patent US20130217678A1, “PHARMACEUTICAL AGENT COMPRISING QUINOLONE COMPOUND” (OTSUKA PHARMACEUTICAL CO., LTD., priority 2008, published 2013)

Row | SMILES | melting point
1 | CCCOc1ccc(C)c2c(=O)c(-c3sc4ccccc4c3C)c[nH]c12 [Example 66, 5-Methyl-3-(3-methylbenzo[b]thiophen-2-yl)-8-propoxy-1H-quinolin-4-one] | 90 to 92 °C
2 | COc1ccc(-c2c[nH]c3c(OCC4CC4)ccc(C)c3c2=O)cc1 [Example 69, 8-Cyclopropylmethoxy-3-(4-methoxyphenyl)-5-methyl-1H-quinolin-4-one] | 182 to 183 °C
3 | CCc1nccn1-c1ccc(C)c2c(=O)c(-c3ccc(OC)cc3)c[nH]c12 [Example 71, 8-(2-Ethylimidazol-1-yl)-3-(4-methoxyphenyl)-5-methyl-1H-quinolin-4-one] | 258 to 260 °C
4 | CCCN(C)c1ccc(C)c2c(=O)c(-c3ccc(OC)cc3)c[nH]c12 [Example 72, 3-(4-Methoxyphenyl)-5-methyl-8-(methyl-propyl-amino)-1H-quinolin-4-one] | 159 to 161 °C
5 | COc1ccc(-c2c[nH]c3c(N4CCOCC4)ccc(C)c3c2=O)cc1 [Example 73, 3-(4-Methoxyphenyl)-5-methyl-8-morpholin-4-yl-1H-quinolin-4-one] | 260 to 263 °C
6 | CCCOc1ccc(C)c2c(=O)c(-c3ccc(O)cc3)c[nH]c12 [Example 74, 3-(4-Hydroxyphenyl)-5-methyl-8-propoxy-1H-quinolin-4-one] | 265 to 267 °C
7 | Cc1ccc(O)c2[nH]cc(-c3ccc(O)cc3)c(=O)c12 [Example 75, 8-Hydroxy-3-(4-hydroxyphenyl)-5-methyl-1H-quinolin-4-one] | 270 to 275 °C (dec.)
8 | CCCCc1ccc(C)c2c(=O)c(-c3ccc(OC)cc3)c[nH]c12 [Example 76, 8-Butyl-3-(4-methoxyphenyl)-5-methyl-1H-quinolin-4-one] | 186 to 188 °C
9 | COc1ccc(-c2c[nH]c3c(N4CCN(C)CC4)ccc(C)c3c2=O)cc1 [Example 77, 3-(4-Methoxyphenyl)-5-methyl-8-(4-methylpiperazin-1-yl)-1H-quinolin-4-one] | 214 to 215 °C
10 | CCCOc1ccc(C)c2c(=O)c(-c3ccc(OC)cc3OCC)c[nH]c12 [Example 78, 3-(2-Ethoxy-4-methoxyphenyl)-5-methyl-8-propoxy-1H-quinolin-4-one] | 191 to 192 °C
11 | COc1ccc(-c2c[nH]c3c(OCC4CC4)ccc(C)c3c2=O)c(F)c1 [Example 79, 8-Cyclopropylmethoxy-3-(2-fluoro-4-methoxyphenyl)-5-methyl-1H-quinolin-4-one] | 198 to 199 °C
12 | CCCOc1ccc(C)c2[nH]cc(-c3ccc(OC)cc3)c(=O)c12 [Example 80, 3-(4-Methoxyphenyl)-8-methyl-5-propoxy-1H-quinolin-4-one] | 156 to 158 °C
13 | CCCOc1ccc(Cl)c2[nH]cc(-c3ccc(OC)cc3)c(=O)c12 [Example 81, 8-Chloro-3-(4-methoxyphenyl)-5-propoxy-1H-quinolin-4-one] | 145 to 147 °C
14 | COc1ccc(-c2c[nH]c3c(N4CCCCCC4)ccc(C)c3c2=O)cc1 [Example 84, 8-Azepan-1-yl-3-(4-methoxyphenyl)-5-methyl-1H-quinolin-4-one] | 249 to 250 °C
15 | CCCOc1cc(-n2ccnc2)cc2c(=O)c(-c3ccc(OC)cc3)c[nH]c12 [Example 85, 6-Imidazol-1-yl-3-(4-methoxyphenyl)-8-propoxy-1H-quinolin-4-one] | 236 to 237 °C
16 | COc1ccc(-c2c[nH]c3c(OCC4CC4)ccc(OC)c3c2=O)cc1 [Example 88, 8-Cyclopropylmethoxy-5-methoxy-3-(4-methoxyphenyl)-1H-quinolin-4-one] | 212 to 214 °C

Row | SMILES | melting point
17 | COc1ccc(-c2c[nH]c3c(C(=O)N(C)C)ccc(C)c3c2=O)cc1 [Example 89, 3-(4-Methoxyphenyl)-5-methyl-4-oxo-1,4-dihydroquinolin-8-carboxylic acid dimethylamide] | 158 to 160 °C
18 | COc1ccc(-c2c[nH]c3c(C(=O)N4CCCC4)ccc(C)c3c2=O)cc1 [Example 90, 3-(4-Methoxyphenyl)-5-methyl-8-(pyrrolidine-1-carbonyl)-1H-quinolin-4-one] | 193 to 195 °C
19 | COc1ccc(-c2c[nH]c3c(OC4CCCC4)ccc(C)c3c2=O)cc1 [Example 91, 8-Cyclopentyloxy-3-(4-methoxyphenyl)-5-methyl-1H-quinolin-4-one] | 237 to 239 °C
20 | CCCOc1ccc(C)c2c(=O)c(-c3ccc(OC)cc3)cn(CC3CC3)c12 [Example 92, 1-Cyclopropylmethyl-3-(4-methoxyphenyl)-5-methyl-8-propoxy-1H-quinolin-4-one] | 100 to 101 °C
21 | COc1ccc(-c2c[nH]c3c(OC4CCCC4)ccc(OC)c3c2=O)cc1 [Example 93, 8-Cyclopentyloxy-5-methoxy-3-(4-methoxyphenyl)-1H-quinolin-4-one] | 213 to 215 °C
22 | CCOc1ccc(OCC)c2c(=O)c(-c3ccc(F)cc3)c[nH]c12 [Example 94, 5,8-Diethoxy-3-(4-fluorophenyl)-1H-quinolin-4-one] | 232 to 234 °C
23 | COc1ccc(-c2c[nH]c3c(-c4ccsc4)ccc(C)c3c2=O)cc1 [Example 97, 3-(4-Methoxyphenyl)-5-methyl-8-thiophen-3-yl-1H-quinolin-4-one] | 189 to 190 °C
24 | COc1ccc(-c2c[nH]c3c(-c4cc5ccccc5s4)ccc(C)c3c2=O)cc1 [Example 98, 8-Benzo[b]thiophen-2-yl-3-(4-methoxyphenyl)-5-methyl-1H-quinolin-4-one] | 229 to 231 °C
25 | COc1ccc(-c2c[nH]c3c(N(C)C4CCCCC4)ccc(C)c3c2=O)cc1 [Example 99, 8-(N-Cyclohexyl-N-methylamino)-3-(4-methoxyphenyl)-5-methyl-1H-quinolin-4-one] | 186 to 187 °C
26 | COc1ccc(-c2c[nH]c3c(-c4cccs4)ccc(C)c3c2=O)cc1 [Example 100, 3-(4-Methoxyphenyl)-5-methyl-8-thiophen-2-yl-1H-quinolin-4-one] | 197 to 199 °C
27 | COc1ccc(-c2c[nH]c3c(N(C)CC(C)C)ccc(C)c3c2=O)cc1 [Example 102, 8-(N-Isobutyl-N-methyl-amino)-3-(4-methoxyphenyl)-5-methyl-1H-quinolin-4-one] | 111 to 113 °C
28 | COc1ccc(-c2c[nH]c3c(N(C)C(C)C)ccc(C)c3c2=O)cc1 [Example 103, 8-(N-Isopropyl-N-methylamino)-3-(4-methoxyphenyl)-5-methyl-1H-quinolin-4-one] | 186 to 187 °C
29 | COc1ccc(OC2CCCC2)c2[nH]cc(-c3ccc(Cl)cc3Cl)c(=O)c12 [Example 104, 8-Cyclopentyloxy-3-(2,4-dichlorophenyl)-5-methoxy-1H-quinolin-4-one] | 266 to 268 °C
30 | COc1ccc(OCC2CC2)c2[nH]cc(-c3ccc(Cl)cc3Cl)c(=O)c12 [Example 105, 8-Cyclopropylmethoxy-3-(2,4-dichlorophenyl)-5-methoxy-1H-quinolin-4-one] | 254 to 256 °C
31 | O=c1c(-c2ccc(Cl)cc2Cl)c[nH]c2c(OC3CCCC3)ccc(O)c12 [Example 106, 8-Cyclopentyloxy-3-(2,4-dichlorophenyl)-5-hydroxy-1H-quinolin-4-one] | 154 to 155 °C
32 | O=c1c(-c2ccc(Cl)cc2Cl)c[nH]c2c(OCC3CC3)ccc(O)c12 [Example 107, 8-Cyclopropylmethoxy-3-(2,4-dichlorophenyl)-5-hydroxy-1H-quinolin-4-one] | 163 to 165 °C
